Experimental data published in publication PMC5863515, “Re-evaluation of Adrenocorticotropic Hormone and Melanocyte Stimulating Hormone Activation of GPR139 in Vitro” (Frontiers in Pharmacology, 2018).
Ends that are not written are not given here.

Tests used:
MC4R + GPR139 = MC4R + GPR139 (Homo sapiens, UniProt Q6DWJ6); assay: Calcium mobilization, HEK-293 transiently expressing MC4R + GPR139; format: cell-based; conditions: MC4R + GPR139; 10 μM JNJ-3792165 or 1 μM HS-024
Description: (§1) Human MC3R (NM_019888), MC4R (NM_005912), and MC5R (NM_005913) were transiently expressed in HEK-293 cells with and without human GPR139 (KR081941) or the chimeric G-protein Gα16. All genes were cloned into pCIneo (Promega, Madison, WI, United States, #E1841). HEK-293 cells were cultured in DMEM/F12 (Gibco, Grand Island, NY, United States, #11039-021), 10% FBS (Hyclone, Logan, UT, United States, # SH300700.03), 50 units/ml penicillin and 50 μg/ml streptomycin (Mediatech, Manassas, VA, United States, #30-001-CI). Cells were seeded at 4 × 10^6 cells in 10 cm dishes and allowed to grow overnight at 37°C, 5% CO2. On the day of transfection, culture media was replaced with F12-K (Mediatech, Manassas, VA, United States, #10-025-CV), 10% FBS, 20 mM HEPES (Hyclone, Logan, UT, United States, #SH30237.01) and transfected with 15 μg DNA (10 μg MCR:5 μg pCIneo, 10 μg MCR:5 μg Gα16 or 7.5 μg MCR:7.5 μg GPR139) using FuGene HD (Promega, Madison, WI, United States, #E2311) according to manufacturer’s instructions. MC3R, MC4R, and MC5R were also transiently expressed in the following GPR139 stably expressing cell lines using the FuGENE HD method: HEK-293 GPR139 clone#33, CHO-TREx GPR139 clone#18, and SK-N-MC/CRE TREx GPR139 clone#35. Stable cell lines were established according to method previously described ([Liu et al., 2015]).
(§2) Intracellular calcium mobilization was measured with the BD calcium kit (BD Bioscience, San Jose, CA, United States). The recombinant cell lines expressing MC3R, MC4R, and MC5R with and without GPR139 or Gα16 were seeded in culture media at a density of 50,000 cells/well into 96-well black/clear-bottom poly-D-lysine treated tissue culture plates. Cells were incubated overnight at 37°C and 5% CO2. Next day, culture media was removed and cells were washed with HBSS prior to dye-loading for 1 h at 37°C and 5% CO2. Agonist stimulation and intracellular calcium measurements were done on the FLIPR Tetra (Molecular Devices, Sunnyvale, CA, United States). For receptor inhibition analysis, antagonists (1 μM HS-024 or 10 μM JNJ-3792165) were added off-line 15 min prior to agonist addition on the Tetra. For G-protein inhibitor experiments, cells were treated with 1 μM YM-254890 for 5 min prior to agonist additions on the Tetra. […] Responses in Figure 6 were normalized to its respective agonist response without antagonist. EC50s were calculated by fitting a three-parameter logistic curve using least-squares non-linear regression analysis as implemented in Graphpad Prism 7.0.

MC5R + GPR139 = MC5R + GPR139 (Homo sapiens, UniProt Q6DWJ6); assay: Calcium mobilization, HEK-293 transiently expressing MC5R + GPR139; format: cell-based; conditions: MC5R + GPR139; 10 μM JNJ-3792165 or 1 μM HS-024
Sequence of MC5R + GPR139 (P33032 whole entry partner, one chain of several): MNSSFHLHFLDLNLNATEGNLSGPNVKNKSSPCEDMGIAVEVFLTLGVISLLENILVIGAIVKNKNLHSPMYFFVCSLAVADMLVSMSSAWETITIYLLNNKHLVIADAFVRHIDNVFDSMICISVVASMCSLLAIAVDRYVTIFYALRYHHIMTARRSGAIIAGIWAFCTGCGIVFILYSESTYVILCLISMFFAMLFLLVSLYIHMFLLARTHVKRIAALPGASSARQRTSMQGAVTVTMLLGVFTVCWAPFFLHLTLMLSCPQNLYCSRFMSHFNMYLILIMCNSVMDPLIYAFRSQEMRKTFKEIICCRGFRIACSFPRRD
Description: as §1, §2

GPR139 [1] = target: T1, GPR139 (Homo sapiens, UniProt Q6DWJ6); assay: [35S]-GTPγS binding assay, membranes of CHO-TREx cells stably expressing GPR139; format: biochemical; design: expressed in transfected cells; host or cells: CHO-TREx GPR139 clone#18
T1 sequence (Q6DWJ6 1-353): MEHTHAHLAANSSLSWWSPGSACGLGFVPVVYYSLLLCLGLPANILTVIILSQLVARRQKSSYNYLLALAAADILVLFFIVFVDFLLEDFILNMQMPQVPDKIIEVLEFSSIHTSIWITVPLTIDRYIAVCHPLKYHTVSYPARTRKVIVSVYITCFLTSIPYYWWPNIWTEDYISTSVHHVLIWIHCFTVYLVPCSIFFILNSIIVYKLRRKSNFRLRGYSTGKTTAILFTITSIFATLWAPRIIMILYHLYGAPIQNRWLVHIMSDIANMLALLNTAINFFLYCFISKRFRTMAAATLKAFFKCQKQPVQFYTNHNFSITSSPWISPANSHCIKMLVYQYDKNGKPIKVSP
Description: For G-protein inhibitor experiments, CHO-TRex cells stably expressing GPR139 were treated with 100 ng/ml pertussis toxin (Gi/o inhibitor) overnight prior to harvesting cells for membrane preparations. […] Reactions were terminated by rapid filtration through GF/C filterplates (Perkin-Elmer, Waltham, MA, United States) on a Cell Harvester (Perkin-Elmer, Waltham, MA, United States). Filterplates were washed three times with ice-cold wash buffer (50 mM Tris, 5 mM MgCl2) and Microscint-40 was added to each well. Bound radioactivity was measured on a Topcount scintillation counter (Perkin-Elmer, Waltham, MA, United States). […] EC50s were calculated by modeling the response associated with the logarithm of concentration as a three-parameter logistic curve with the Bottom plateau parameter fixed at 0. The fit was obtained using least-squares non-linear regression as implemented in GraphPad Prism 7.0.

GPR139 [2] = target: T1, GPR139; assay: [3H]JNJ-63533054 radioligand binding assay, membranes of CHO-TREx cells stably expressing human GPR139; design: expressed in transfected cells; host or cells: CHO-TREx GPR139 clone#18; conditions: 10 nM radioligand; CHO-TREx GPR139 membranes; read-out: pKi, displacement of [3H]JNJ-63533054 (converted)
Description: Reaction was terminated by filtration through GF/C filterplates pre-treated with PEI (polyethyleneimine) followed by washes with ice-cold TE buffer. Filterplates were dried in a 60°C oven followed by addition of Microscint-0. Bound radioactivity was read on a Topcount scintillation counter. […] Half-maximal inhibitory concentrations (IC50s) of test compounds were calculated by fitting a three-parameter logistic curve using least-squares non-linear regression analysis as implemented in Graphpad Prism 7.0. The Top plateau was fixed at 100 and the Bottom was fixed at 0.

GPR139 [3] = target: T1, GPR139; assay: Calcium mobilization assay, antagonism at GPR139 (cell line not stated); format: cell-based; design: expressed in transfected cells; host or cells: CHO-TREx GPR139 clone#18; conditions: read-out: pKb, antagonist in calcium mobilization assay (converted)
Description: as §2

MC3R + GPR139 = MC3R + GPR139 (Homo sapiens, UniProt Q6DWJ6); assay: Calcium mobilization, HEK-293 transiently expressing MC3R + GPR139; format: cell-based; conditions: MC3R + GPR139; 10 μM JNJ-3792165 or 1 μM HS-024
Sequence of MC3R + GPR139 (P41968 whole entry partner, one chain of several): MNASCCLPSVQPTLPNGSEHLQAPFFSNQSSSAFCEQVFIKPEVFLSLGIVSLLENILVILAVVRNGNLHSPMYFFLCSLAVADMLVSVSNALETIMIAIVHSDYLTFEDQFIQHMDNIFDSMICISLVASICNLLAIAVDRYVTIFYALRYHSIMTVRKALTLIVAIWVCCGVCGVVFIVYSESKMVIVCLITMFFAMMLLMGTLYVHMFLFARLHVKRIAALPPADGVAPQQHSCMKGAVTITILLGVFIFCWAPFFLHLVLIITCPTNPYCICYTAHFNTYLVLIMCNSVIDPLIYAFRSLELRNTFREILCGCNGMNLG
Description: Intracellular calcium mobilization was measured with the BD calcium kit (BD Bioscience, San Jose, CA, United States). The recombinant cell lines expressing MC3R, MC4R, and MC5R with and without GPR139 or Gα16 were seeded in culture media at a density of 50,000 cells/well into 96-well black/clear-bottom poly-D-lysine treated tissue culture plates. Cells were incubated overnight at 37°C and 5% CO2. Next day, culture media was removed and cells were washed with HBSS prior to dye-loading for 1 h at 37°C and 5% CO2. Agonist stimulation and intracellular calcium measurements were done on the FLIPR Tetra (Molecular Devices, Sunnyvale, CA, United States). […] EC50s were calculated by fitting a three-parameter logistic curve using least-squares non-linear regression analysis as implemented in Graphpad Prism 7.0.

[4] = tested on: over 50 other neurotransmitter and neuropeptide receptors including the MCRs; assay: Selectivity panel of over 50 other neurotransmitter and neuropeptide receptors; format: binding; conditions: at 1 μM
GPR139 [5] = target: T1, GPR139; design: method as in Liu et al., 2015; conditions: ref Liu et al., 2015; cited from earlier work
GPR139 [6] = target: T1, GPR139; assay: Calcium mobilization, SK-N-MC/CRE cells stably expressing human GPR139; format: cell-based; design: expressed in transfected cells; host or cells: CHO-TREx GPR139 clone#18; conditions: SK-N-MC/CRE stable GPR139
Description: as §1, §2

MC4R = target: T2, MC4R (Homo sapiens, UniProt P32245); assay: Calcium mobilization, HEK-293 transiently expressing MC4R; format: cell-based; conditions: HEK293; HEK-293 transient MC4R alone; read-out: Emax, calcium release in MC4R expressing cells
T2 construct: expressed in transfected cells; host or cells: HEK-293, pCIneo, transient (FuGene HD)
T2 sequence (P32245 whole entry): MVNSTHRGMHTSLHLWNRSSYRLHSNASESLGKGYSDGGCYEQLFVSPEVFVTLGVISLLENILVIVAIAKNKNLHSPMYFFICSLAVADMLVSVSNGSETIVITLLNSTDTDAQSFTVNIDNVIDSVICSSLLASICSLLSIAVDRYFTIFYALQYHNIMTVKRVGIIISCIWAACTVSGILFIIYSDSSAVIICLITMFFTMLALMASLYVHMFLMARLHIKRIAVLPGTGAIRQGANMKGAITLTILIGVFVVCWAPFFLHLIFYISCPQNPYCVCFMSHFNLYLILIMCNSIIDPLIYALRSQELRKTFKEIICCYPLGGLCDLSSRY
Description: as §1, §2

GPR139 [7] = target: T1, GPR139; design: expressed in transfected cells; host or cells: CHO-TREx GPR139 clone#18; method as in Nøhr et al. (2017b); conditions: ref Nøhr et al. (2017b), cited from earlier work; for Activation of GPR139, potency range in words: CHO cells stably expressing human GPR139
GPR139 [8] = target: T1, GPR139; assay: Calcium mobilization, CHO-TREx cells stably expressing human GPR139; format: cell-based; design: expressed in transfected cells; host or cells: CHO-TREx GPR139 clone#18; conditions: CHO-TREx stable GPR139
MC4R + Gα16 = MC4R + Gα16 (Homo sapiens, UniProt P32245); assay: Calcium mobilization, CHO-K1 cells transiently expressing MC4R + Gα16; format: cell-based; design: expressed in transfected cells; host or cells: CHO-K1, transient; conditions: data not shown
Sequence of MC4R + Gα16 (P32245 whole entry): as above

GPR139 [9] = target: T1, GPR139; assay: Calcium mobilization, HEK-293 cells stably expressing human GPR139; format: cell-based; design: expressed in transfected cells; conditions: HEK-293 stable GPR139
Description: as §1, §2

Sequence of MC4R + GPR139 (P32245 whole entry partner, one chain of several): as the sequence (P32245 whole entry) above

| Emax (MC4R) | Calcium response in CHO-K1 cells co-expressing MC4R + Gα16 (MC4R + Gα16) | Calcium mobilization activity, in words (GPR139 [9]) | Compound | Antagonist effect on ACTH, α-MSH and β-MSH induced calcium response (MC4R + GPR139) | Antagonist effect on calcium response to GPR139 agonists (JNJ-63533054, TC-09311, L-Trp) (MC4R + GPR139) | Antagonist effect on ACTH, α-MSH and β-MSH induced calcium response (MC5R + GPR139) | Antagonist effect on calcium response to GPR139 agonists (JNJ-63533054, TC-09311, L-Trp) (MC5R + GPR139) | Antagonist effect on ACTH, α-MSH and β-MSH induced calcium response (MC3R + GPR139) | Antagonist effect on calcium response to GPR139 agonists (JNJ-63533054, TC-09311, L-Trp) (MC3R + GPR139) | Activation of GPR139, potency range in words (GPR139 [7]) | other results |
| --- | --- | --- | --- | --- | --- | --- | --- | --- | --- | --- | --- |
| – | – | – | Cc1cccc(NC(=O)c2cc(C)n(Cc3c(Cl)cccc3Cl)n2)c1 [JNJ-3792165, 1H-pyrazole-3-carboxamide, 1-[(2,6-dichlorophenyl)methyl]-5-methyl-N-(3-methylphenyl)] | did not block | fully inhibited | did not block | fully inhibited | did not block | fully inhibited | – | Kb (GPR139 [1]; read-out: pKb, antagonist in [35S]GTPγS assay (converted)): 39.8 nM; Ki (GPR139 [2]): 20 nM; Kb (GPR139 [3]): 126 nM; Inhibition at any receptor other than GPR139 (selectivity panel) [4]: less than 50% |
| – | – | – | N[C@@H](Cc1ccccc1)C(=O)O [L-Phe, L-phenylalanine] | – | – | – | – | – | – | – | EC50 (GPR139 [5]): 30000 to 300000 nM |
| 24% | calcium response | No activity was detected | CSCC[C@H](NC(=O)[C@H](CCCNC(=N)N)NC(=O)[C@H](Cc1ccc(O)cc1)NC(=O)[C@@H]1CCCN1C(=O)CNC(=O)[C@H](CCC(=O)O)NC(=O)[C@H](CC(=O)O)NC(=O)[C@H](CCCCN)NC(=O)[C@H](CCCCN)NC(=O)[C@H](CCC(=O)O)NC(=O)[C@H](C)N)C(=O)N[C@@H](CCC(=O)O)C(=O)N[C@@H](Cc1c[nH]cn1)C(=O)N[C@@H](Cc1ccccc1)C(=O)N[C@@H](CCCNC(=N)N)C(=O)N[C@@H](Cc1c[nH]c2ccccc12)C(=O)NCC(=O)N[C@@H](CO)C(=O)N1CCC[C@H]1C(=O)N1CCC[C@H]1C(=O)N[C@@H](CCCCN)C(=O)N[C@@H](CC(=O)O)C(=O)O [β-MSH, β melanocyte stimulating hormone] | – | – | – | – | – | – | sub- to low micromolar range | Calcium mobilization activity, in words (GPR139 [6]): No activity was detected; Activation of GPR139 ([35S]-GTPγS incorporation), in words (GPR139 [1]; up to 30 μM): did not activate GPR139; Calcium mobilization activity, in words (GPR139 [8]): No activity was detected |
| – | – | – | HS-024 | reduction in both potency and efficacy | had no effect | fully blocked | reduced the efficacy | rightward shift of the EC50 | had no effect | – | – |
| 27% | calcium response | did not increase calcium mobilization | SYSMEHFRWGKPVGKKRRPVKVYPNGAEDESAEAFPLEF [ACTH, adrenocorticotropic hormone] | – | – | – | – | – | – | sub- to low micromolar range | Fold less potent on GPR139 than on MC4R (GPR139 [7]): 100 fold |
